Series [1] has as its system LNCaP cells. Kind of series: Cell viability assay in LNCaP cells. Format: cell-based. Here is the method:
FIG. 4. Cell viability assay data in LNCaP cells with compound 6.
(§1) Recombinant HDAC1 and HDAC6 are used to evaluate the selective inhibitory potency of each compound. Cell based assays: Normal cells (Human Foreskin Fibroblast cells), LNCaP (human prostate cancer cells), MCF-7 (human breast cancer cells, A549 (human adenocarcinoma of lung cells) and ARP-1 (human multiple myeloma cells) are used in these assays. Cells were cultured for up to 72 hr without and with the potential HDAC6-selective inhibitor. SAHA was used as a control. Cell number and cell viability were determined by enumeration. Proteins were extracted from cells and assayed for accumulation of acetylated tubulin and acetylated histones. All methods are described in Namdar et al., PNAS, 2010, 107:20003-8. In vivo animal studies: Potential HDAC6 inhibitor compounds are further assayed by administration to mice for up to 5 days with daily injections. Animals are sacrificed and tissues are analyzed for accumulation of acetylated tubulin and acetylated histones.

The subject of the next series is known human HDACs. The settings on record: background statement; cited from earlier work.
Another series concerns the target T1, HDAC6 (Homo sapiens, UniProt Q9UBN7).
T1 sequence (Q9UBN7 1-1215): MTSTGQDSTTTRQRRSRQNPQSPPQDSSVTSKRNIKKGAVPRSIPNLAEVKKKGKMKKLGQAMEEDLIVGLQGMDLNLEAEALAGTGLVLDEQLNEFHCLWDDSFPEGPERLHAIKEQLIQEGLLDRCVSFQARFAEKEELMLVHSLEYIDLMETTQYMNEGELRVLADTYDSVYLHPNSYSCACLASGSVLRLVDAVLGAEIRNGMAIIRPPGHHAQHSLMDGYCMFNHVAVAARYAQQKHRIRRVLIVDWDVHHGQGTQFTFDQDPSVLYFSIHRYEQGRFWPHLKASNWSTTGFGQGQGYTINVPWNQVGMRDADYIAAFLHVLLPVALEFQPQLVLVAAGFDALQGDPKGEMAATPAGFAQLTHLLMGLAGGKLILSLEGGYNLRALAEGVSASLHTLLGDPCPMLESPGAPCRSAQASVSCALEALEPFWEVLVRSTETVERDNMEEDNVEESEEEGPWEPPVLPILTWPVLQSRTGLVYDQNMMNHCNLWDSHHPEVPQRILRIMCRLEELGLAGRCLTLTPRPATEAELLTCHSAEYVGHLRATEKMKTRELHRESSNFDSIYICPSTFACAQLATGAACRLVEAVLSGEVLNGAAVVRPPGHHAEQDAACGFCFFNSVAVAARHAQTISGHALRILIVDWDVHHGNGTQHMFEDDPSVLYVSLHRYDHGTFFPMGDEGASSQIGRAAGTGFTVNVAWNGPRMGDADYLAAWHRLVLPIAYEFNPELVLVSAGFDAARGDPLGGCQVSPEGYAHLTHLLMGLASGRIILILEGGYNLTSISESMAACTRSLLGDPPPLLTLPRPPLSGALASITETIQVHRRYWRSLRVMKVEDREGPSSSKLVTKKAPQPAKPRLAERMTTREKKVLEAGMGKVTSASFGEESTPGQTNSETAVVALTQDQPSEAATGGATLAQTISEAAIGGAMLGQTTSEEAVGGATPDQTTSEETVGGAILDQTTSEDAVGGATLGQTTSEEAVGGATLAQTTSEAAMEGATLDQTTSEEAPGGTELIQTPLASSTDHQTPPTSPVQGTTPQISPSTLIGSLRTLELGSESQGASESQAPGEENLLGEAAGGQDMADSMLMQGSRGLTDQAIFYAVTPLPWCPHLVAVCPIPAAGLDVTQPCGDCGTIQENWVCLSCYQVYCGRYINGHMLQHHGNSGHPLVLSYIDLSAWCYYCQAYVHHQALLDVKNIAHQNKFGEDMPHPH
As to the kind of experiment: Recombinant HDAC1 and HDAC6 selective inhibitory potency. Format: biochemical. Here is the method: as §1

Another series concerns acetylated alpha-tubulin. Kind of series: Accumulation of acetylated alpha-tubulin in LNCaP cells (blot). Format: cell-based, human. The settings on record: for identified as HDAC6-selective inhibitor: on the basis of accumulation of acetylated tubulin without accumulation of acetylated histones.
Excerpt: (§2) FIG. 2. Blot showing accumulation of acetylated alpha-tubulin and acetylated histone H3 in LNCaP cells cultured with compound 6. GADPH used as loading control.
as §1

The target in series [2] is T2, C-terminal catalytic domain of HDAC6 (Homo sapiens, UniProt Q9UBN7).
T2 sequence (Q9UBN7 1-1215): T1 sequence (Q9UBN7 1-1215)
As to conditions: Haggarty et al. (6); cited from earlier work.

The next series deals with microtubules. As to conditions: Haggarty et al. (6); cited from earlier work.
The next series deals with cell motility. As to conditions: Haggarty et al. (6); cited from earlier work.
The subject of another series is acetylated histone H3. As to the kind of experiment: Accumulation of acetylated histone H3 in LNCaP cells (blot). As to conditions: FIG. 2. Format: cell-based, human.
Excerpt: as §2, §1

Series [3] deals with LNCaP cells. Kind of series: Cell growth assay in LNCaP cells. Format: cell-based, human. The settings on record: FIG. 3. Here is the method:
FIG. 3. Cell growth assay data in LNCaP cells with compound 6.
as §1

Molecules are shown by their SMILES.

Regarding `O=C(CCCCCCC(=O)Nc1ccccc1)NO` [SAHA, suberoylanilide hydroxamic acid, reference compound], the “death of LNCaP cells” value in the series with LNCaP cells [1] (SAHA control) is recorded as “kills LNCaP cells”. Moreover, the “selectivity of inhibitory activity among known human HDACs” value in the series on known human HDACs is “not selective among the known human HDACs”.
For the molecule `O=C(NO)C(=O)Nc1ccc(CC(=O)N(CCO)c2ccccc2)cc1` [Compound 26], the “HDAC inhibitor selectivity for HDAC6 relative to HDAC1” value on HDAC6 is “selective for HDAC6 relative to HDAC1”.
On to `O=C(CCc1ccc(CC(=O)N(CCO)c2ccccc2)cc1)NO` [Compound 36], for which the “HDAC inhibitor selectivity for HDAC6 relative to HDAC1” value at HDAC6 is on record as “selective for HDAC6 relative to HDAC1”.
For the molecule `O=C(NO)c1cccc2c1ccn2CC(=O)N(CCO)c1ccccc1` [Compound 37], at HDAC6, the “HDAC inhibitor selectivity for HDAC6 relative to HDAC1” value is reported as “selective for HDAC6 relative to HDAC1”.
In the case of `O=C(NO)c1cccc2c1ncn2CC(=O)N(CCO)c1ccccc1` [Compound 43], the “HDAC inhibitor selectivity for HDAC6 relative to HDAC1” value on HDAC6 was “selective for HDAC6 relative to HDAC1”.
Regarding `O=C(NO)c1cccc(CC(=O)N(CCO)c2ccccc2)c1` [Compound 79, N-hydroxy-3-(2-((2-hydroxyethyl)(phenyl)amino)-2-oxoethyl) benzamide], on HDAC6, the “HDAC inhibitor selectivity for HDAC6 relative to HDAC1” value is recorded as “selective for HDAC6 relative to HDAC1”.
Turning to `O=C(CN(CCO)c1ccccc1)Nc1ccc(C(=O)NO)cc1` [Compound 30], on HDAC6, the “HDAC inhibitor selectivity for HDAC6 relative to HDAC1” value is recorded as “selective for HDAC6 relative to HDAC1”.
Still for that read-out and setting: the entry for `O=C(NO)Nc1ccc(CC(=O)N(CCO)c2ccccc2)cc1` [Compound 24] is “selective for HDAC6 relative to HDAC1”.
As for `O=C(NO)c1ccc(CC(=O)N(CCO)c2cccc3cccnc23)cc1` [Compound 14, N-hydroxy-4-(2-((2-hydroxyethyl)(quinolin-8-yl)amino)-2-oxoethyl) benzamide], at HDAC6, the “HDAC inhibitor selectivity for HDAC6 relative to HDAC1” value is “selective for HDAC6 relative to HDAC1”. For the same molecule, in the series with acetylated alpha-tubulin, the “identified as HDAC6-selective inhibitor” value is listed as “HDAC6-selective inhibitors”.
As for `O=C(CC(=O)Nc1ccc(CC(=O)N(CCO)c2ccccc2)cc1)NO` [Compound 31], the “HDAC inhibitor selectivity for HDAC6 relative to HDAC1” value at HDAC6 is given as “selective for HDAC6 relative to HDAC1”.
On to `O=C(CN(CCO)c1ccccc1)Oc1ccc(C(=O)NO)cc1` [Compound 32], for which, on HDAC6, the “HDAC inhibitor selectivity for HDAC6 relative to HDAC1” value is recorded as “selective for HDAC6 relative to HDAC1”.
Take `O=C(NO)c1ccc(NCC(=O)N(CCO)c2ccccc2)cc1` [Compound 27]: the “HDAC inhibitor selectivity for HDAC6 relative to HDAC1” value on HDAC6 is “selective for HDAC6 relative to HDAC1”.
For `O=C(CCCCCCC(=O)Nc1ccc([C@H]2O[C@@H](CSc3nc(-c4ccccc4)c(-c4ccccc4)o3)C[C@@H](c3ccc(CO)cc3)O2)cc1)NO` [tubacin], the “inhibition of C-terminal catalytic domain of HDAC6 (α-tubulin deacetylation)” value in [2] is recorded as “can be inhibited”. In addition, the stability of microtubules result with microtubules was “did not affect the stability of microtubules”. Besides, in the series on cell motility, the cell motility entry is “decreased cell motility”.
As to `O=C(/C=C/C(=O)Nc1ccc(CC(=O)N(CCO)c2ccccc2)cc1)NO` [Compound 21], on HDAC6, the “HDAC inhibitor selectivity for HDAC6 relative to HDAC1” value was “selective for HDAC6 relative to HDAC1”.
For `O=C(NO)c1ccc(C(=O)N(CCO)c2ccccc2)cc1` [Compound 33], the “HDAC inhibitor selectivity for HDAC6 relative to HDAC1” value on HDAC6 was “selective for HDAC6 relative to HDAC1”.
`O=C(NO)c1ccc(CC(=O)N(CCO)c2ccccc2)cc1` [Compound 6, N-hydroxy-4-(2-((2-hydroxyethyl)(phenyl)amino)-2-oxoethyl) benzamide]: the “HDAC inhibitor selectivity for HDAC6 relative to HDAC1” value at HDAC6 is “selective for HDAC6 relative to HDAC1”. Moreover, the “levels of tubulin acetylation” value in the series on acetylated alpha-tubulin (LNCaP cells, FIG. 2) is recorded as “significant levels of tubulin acylation were present”. For the same molecule, the “levels of tubulin acetylation reached in the absence of histone acetylation, compared with tubacin” value in the series on acetylated alpha-tubulin (in the absence of histone acetylation) is listed as “greater than selective levels with tubacin”. In addition, in the series with acetylated alpha-tubulin, the “identified as HDAC6-selective inhibitor” value is given as “HDAC6-selective inhibitors”. In the series on acetylated histone H3, the “induction of H3 acetylation” value is given as “without induction of H3 acetylation”. Also, the cell number result with LNCaP cells [3] is “inhibits cell number”. Moreover, the cell viability entry in the series with LNCaP cells [1] (FIG. 4) was “does not decrease cell viability”. Also, the “death of LNCaP cells” value in the series with LNCaP cells [1] (concentrations as high as 32 μM) is given as “no detectable death of LNCaP cells”.
Regarding `O=C(CCc1ccc(C(=O)N(CCO)c2ccccc2)cc1)NO` [Compound 35], the “HDAC inhibitor selectivity for HDAC6 relative to HDAC1” value on HDAC6 is reported as “selective for HDAC6 relative to HDAC1”.
Same read-out and setting: the entry for `O=C(Cc1ccc(C(=O)N(CCO)c2ccccc2)cc1)NO` [Compound 34] is “selective for HDAC6 relative to HDAC1”.
